Data on six compounds can be found in patent US5272164A, “Carboximidamide derivatives” (Kirin Beer Kabushiki Kaisha, priority 1988, dated 1993).

Structures are written as SMILES.

For experiment [1], the system named is potassium channel. As to the kind of experiment: Potassium channel activating effect (86Rb efflux from rat thoracic aortae). It is filed as cell-based, male Wistar rats. The settings on record: 10^-4 M, 8 minutes, percent of efflux before application. The method, then: Male Wistar rats (weighing 250-350 g) were dehematized to death, and thoracic aortae were rapidly isolated. The aorta was opened along the longitudinal axis to prepare a flat sheet. The preparation was loaded with ^86 Rb in the Krebs-Ringer solution which contained ^86 Rb in the concentration of 10 μCi/ml and was gassed with 95% 02 5% CO2 at 37° C. for 2 hours. The preparation was then transferred to a Krebs-Ringer solution not containing ^86 Rb, and washed to remove excess radioactivity for 18 minutes by refreshing the solution every 2 minutes. Finally the preparation was placed into a Krebs-Ringer solution containing each compound (10^-4 M) for 8 minutes.
The amount of ^86 Rb efflux from the preparation in each period was determined with a γ-counter.
The increment in efflux rate during the application of the compound was expressed as percent of the efflux before the application of the compound.

Another experiment has as its system isolated rat heart. As to the kind of experiment: Effect on isolated rat heart (Langendorff's method). Also on record: species or system male rats. The settings on record: 1 × 10^-8 mol/min, n=3, mean ± S.D.; for Coronary Perfusate Flow: ** p < 0.01 as compared with nicorandil. On the procedure:
The effect of the compound of the present invention on heart of rats was examined by using the Langendorff's method [test compound: N-cyano-N'-(2-nitroxyethyl)-3-pyridinecarboximidamide (compound (13))]. Hearts were excised from male rats (weighing 250-350 g) and perfused at 80 cmH2 O in a Langendorff fashion. Krebs-Hensaleit bicarbonate solution (pH 7.4, 37° C.) containing an 11 mM glucose which was oxygenated with 95% O2 -5% CO2 gas mixture was used as a perfusate. The left ventricular pressure was recorded by inserting a latex balloon into the left ventricle, and heart rate was determined from the pulse of it. Coronary perfusate flow as also measured with an electromagnetic flowmeter. The experiments were carried out by perfusing a perfusate containing the compound (13) for 10 minutes after an initial equilibration period for 30 minutes. As the control compound, nicorandil which has an effect opening potassium channel and is similar to the test compound in structure was used. The changes in the coronary perfusate flow and the cardiac function (heart rate×left ventricular pressure) caused by these compounds were expressed as percent changes from the preperfusion values of the compound (13) or nicorandil.

For another experiment, the system named is isolated heart of rats. As to the kind of experiment: Effect on myocardiac injury induced by re-perfusion after ischemia (isolated rat heart). The following applies: mean ± SD. On the procedure:
The cardiac muscle protecting effect of the compound of the present invention was tested by using the isolated heart of rats [test compound: N-cyano-N'-(2-nitroxyethyl)- 3-pyridinecarboximidamide (compound (13))]. The Langendorff's method was used in the same manner as in the aforementioned Referential Example 1)-6. The isolated heart was perfused with a perfusate for 30 minutes and then with a perfusate containing the test compound for 10 minutes, and perfusion was stopped so that the heart was in the so-called "ischemic state". Pacing was performed during the ischemia. […] Parameters of cardiac function after the onset of re-perfusion was monitored for 30 minutes, and the heart was quickly freezed. The amount of ATP in the heart muscle was extracted with perchloric acid and determined by HPLC. Nicorandil was used as a control.
The recovery rate of the cardiac function (heart rate×left ventricular pressure) after onset of reperfusion was calculated based on the cardiac function prior to the perfusion of the compound (13) and nicorandil as 100%. The amount of ATP in the heart muscle was also determined.

The test system of experiment [2] is potassium channel. The settings on record: in words; Trends in Pharmacological Sciences, 8, 283, 1987; cited from earlier work.

Consider `N#CNC(=NCCO[N+](=O)[O-])c1ccncc1` [(41), N-cyano-N'-(2-nitroxyethyl)-4-pyridinecarboximidamide], for which the “Increment of Efflux” value in the experiment on potassium channel [1] came to 126.88%. `N#CNC(=NCCO[N+](=O)[O-])c1cccnc1` [Compound (13), N-cyano-N'-(2-nitroxyethyl)-3-pyridinecarboximidamide]: the “Increment of Efflux” value in the experiment on potassium channel [1] is 213.53%. Further, the “Coronary Perfusate Flow” value in the experiment with isolated rat heart worked out at 51.3 ± 3.2 % change. Also, in the experiment with isolated heart of rats (1 × 10^-7 mole/min, n=3, ** p < 0.01 vs physiological saline group), the “Recovery rate of cardiac function” value amounted to 67.5 ± 6.0%. In the case of `O=C(NCCO[N+](=O)[O-])c1cccnc1` [Nicorandil], in the experiment with isolated rat heart, the “Cardiac Function (heart rate×left ventricular pressure)” value is 3.7 ± 6.7 percent change and the “Coronary Perfusate Flow” value stood at 3.3 ± 5.6 % change. In addition, the “Recovery rate of cardiac function” value in the experiment with isolated heart of rats (1 × 10^-6 mole/min, n=4) amounted to 12.7 ± 8.2%. For `N#CNC(=NCCc1ccccc1)c1cccnc1` [(27), N-cyano-N'-(2-phenylethyl)-3-pyridinecarboximidamide], in the experiment with potassium channel [1], the “Increment of Efflux” value is 206.61%. As for `CC1(C)Oc2ccc(C#N)cc2[C@@H](N2CCCC2=O)[C@H]1O` (relative stereo) [chromakalim], in the experiment with potassium channel [2], the “potassium channel activating effect” value was “potassium channel activating effect”. For `N#CNC(=NCc1ccccc1)c1cccnc1` [(17), N-cyano-N'-benzyl-3-pyridinecarboximidamide], in the experiment on potassium channel [1], the “Increment of Efflux” value was found to be 135.41%.
